According to patent publication EP0578726B1, “VIRUS INACTIVATION METHOD” (VEGATEC, priority 1991, dated 1992):

What was measured:
[1] = tested on: Herpès simplex virus II (HSVII); experiment: Example I: inactivation of HSVII suspensions, detection in cell culture; format: cell-based; settings: 6,5 g/l of (III)
Method: Herpès simplex virus II (HSVII) est entretenu en culture cellulaire et les suspensions virales obtenues ont une dose infectieuse 50% (DI50) à une dilution de 10⁻⁶.
Les suspensions virales sont mises en contact avec 6,5g/l de (III) pendant 1h, 2h, 4h à 30°C.
Des témoins positifs sont réalisés dans les mêmes conditions d'incubation sans addition de (III).
L'effet virucide de (III) est arrêté par dilution au 1/100e avec du milieu de culture sans virus. La concentration virale atteint alors 10⁴DI50 pour l'effet de dilution.

[2] = tested on: Herpès Simplex Virus II (HSV II); experiment: Example II: kinetics of HSV II inactivation, titration on receptor cells; format: cell-based; settings: after 15 minutes of contact, (III) 5 g/l final concentration
Method: Herpès Simplex Virus II (HSV II) de l'exemple 1 est incubé avec une solution de (III) à 5 g/l en concentration finale dans son milieu de culture.
Des prélèvements sont effectués à intervalles de temps 5, 10, 15, 30 et 60 minutes, puis titrés pour leur contenu en virus infectieux sur cellules réceptrices en culture.

C 1 estérase = experiment: Example VIII: inhibitory capacity of treated C 1 Inactivateur towards C 1 estérase; format: biochemical; settings: 6 h - 24°C, (III) at 6,5 g/l, % of inhibitory activity of purified C 1 Inactivateur without additive at To
Method: La protéine a donc été traitée d'une part avec le procédé solvant-détergent, d'autre part avec (III) à une concentration finale de 6,5 g/l pendant 6 h à 24°C, dans le but d'obtenir l'inactivation des virus éventuellement présents dans la matière première.
Le tableau H montre l'influence du traitment d'inactivation virale sur les propriétés inhibitrices du C 1 Ina essayé sur trois enzymes : C 1 estérase, kallicréine, plasmine.
Le témoin est incubé 6 h à 24°C mais ne contient aucun additif inactivant.
L'activité inhibitrice est exprimée en % de l'activité inhibitrice du C 1 Inactivateur purifié sans additif et dosé à To.

SMILES: CCCCCCCNC(=O)OC[C@H]1O[C@H](OC)[C@H](O)[C@@H](O)[C@@H]1O [(III), 6-O-(N-heptylcarbamoyl)méthyl-α-D-glucopyranoside]
- inactivation de HSVII ([1]; 30°C, control titre 10⁴DI50): ≥ 4 log
- activité virale de HSVII ([1]; contact 1h, 2h, 4h at 30°C, stopped by 1/100 dilution): Aucune activité virale de HSVII n'est détectée
- activité virale de HSVII [2]: Aucune activité virale de HSVII n'est détectée
- Activité anti C 1 estérase (C 1 estérase; essai n° 1): 96,2%
- Activité anti C 1 estérase (C 1 estérase; essai n° 2): 100%
